According to patent publication US20250108038A1 (priority 2023, published 2025):
“And” between values parts separate entries of the source, which are not always exact repeats. Identical values can stand only once.

Tested on: Long Evans rats
Experiment: Behavioral satiety sequence (BSS)
Assay type: in vivo, Long Evans rat
Text: The Behavioural Satiety Sequence (BSS) is a technique used to evaluate physiological satiety. It is based on the expression of a sequence of behaviors including eating, grooming, locomotor activity, followed by resting, which are typically observed in rodents post-ingestion (Halford et al, 1998, Pharmacology Biochemistry and Behaviour. 61(2): 159-168). The BSS is a widely used model for determining the effects of novel pharmaceuticals on food intake and measures of satiety in rodents (Oliveira et al, 2011, Revista de Nutrição. 24(4) 619-628), and to discriminate the cause of reduced food intake following pharmacological manipulation. For example, treatments that may reduce food intake by non-specific mechanisms, such as immobility, malaise, and taste adulteration, will disrupt this sequence (Halford et al, 1998, Pharmacology Biochemistry and Behaviour. 61(2): 159-168).
Specifically, 12 male Long-Evans rats were food-deprived for 22 h with a 2 h feeding period each day. Rats were trained to consume daily food during the 2 h period over 25 days. The testing phase was initiated once the rats consistently consumed 16-18 g of food per day with ≤10% variance in amount of feed consumed. Feeding took place in designated individual boxes in a quiet room separate from the housing room. Continuous remote monitoring via video camera during feeding was used to assess the BSS. Food consumption was measured by weighing the total available food before and after the 2 h feeding window, correcting for spillage. Lorcaserin (1 mg/kg) was included as a reference control (Higgins et al, 2011, Neuropsychopharmacology. 37(5): 1177-1191). Subjects were tested using a repeated-measures, Latin square design with 2-3 days wash-out between treatment cycles.
On scheduled test days, animals were monitored remotely via video camera during the feeding access period. The occurrence of four mutually exclusive behaviors (eating/drinking, grooming, active, rest) were individually scored. Over the 2 h feeding period, behaviors were assessed every 30 seconds. Scores were compiled into 23 5 min timebins (timebin 24 was removed due to early removal of animals) and the frequency of each behavior within each timebin was calculated to determine a temporal frequency of each measure (Rodgers et al, 2010, Pharmacology Biochemistry and Behaviour. 97: 3-14). Percentage time was plotted for each behavioral sequence in each timebin to compare between treatment groups (Higgins et al, 2011, Neuropsychopharmacology. 37(5): 1177-1191).

[1] = 0.3 mg/kg, raw score per animal LT-1 to LT-12
[2] = 1 mg/kg, raw data per animal (LT-1 to LT-12)

SMILES: Clc1ccc(C2(OCC3OCCO3)c3ccccc3C3=NCCN32)cc1 (stereo not drawn) [Compound I-19]
- BSS scoring A (active), Time Bin 16 (75-80 TOTAL) [1]: 0 (6×) and 2 (3×) and 3 (3×)
- BSS scoring A (active), Time Bin 17 (80-85 TOTAL) [1]: 0 (3×) and 2 and 1 (5×) and 3 and 5 (2×)
- BSS scoring A (active), Time Bin 18 (85-90 TOTAL) [1]: 4 and 0 (5×) and 8 and 2 (2×) and 1 and 5 (2×)
- BSS scoring E (eating/drinking), Time Bin 13 (60-65 TOTAL) [1]: 10 (3×) and 7 (4×) and 8 (3×) and 9 and 6
- BSS scoring E (eating/drinking), Time Bin 14 (65-70 TOTAL) [1]: 9 (5×) and 6 and 10 (2×) and 7 and 8 (2×) and 2
- BSS scoring E (eating/drinking), Time Bin 15 (70-75 TOTAL) [1]: 9 and 6 (4×) and 4 and 1 and 7 (3×) and 5 and 3
- BSS scoring E (eating/drinking), Time Bin 16 (75-80 TOTAL) [1]: 10 (4×) and 6 (2×) and 9 and 8 and 7 (3×) and 5
- BSS scoring E (eating/drinking), Time Bin 17 (80-85 TOTAL) [1]: 10 (3×) and 5 and 4 (4×) and 7 (2×) and 9 (2×)
- BSS scoring E (eating/drinking), Time Bin 18 (85-90 TOTAL) [1]: 4 and 9 (3×) and 8 and 0 and 6 (2×) and 10 and 3 (2×) and 7
- BSS scoring G (grooming), Time Bin 13 (60-65 TOTAL) [1]: 0 (8×) and 1 (4×)
- BSS scoring G (grooming), Time Bin 14 (65-70 TOTAL) [1]: 0 (9×) and 1 (3×)
- BSS scoring G (grooming), Time Bin 15 (70-75 TOTAL) [1]: 0 (7×) and 1 (5×)
- BSS scoring G (grooming), Time Bin 16 (75-80 TOTAL) [1]: 0 (11×) and 1
- BSS scoring G (grooming), Time Bin 17 (80-85 TOTAL) [1]: 0 (8×) and 2 (2×) and 1 (2×)
- BSS scoring G (grooming), Time Bin 18 (85-90 TOTAL) [1]: 2 (2×) and 1 (8×) and 0 (2×)
- BSS scoring R (resting), Time Bin 13 (60-65 TOTAL) [1]: 0 (7×) and 2 (3×) and 1 (2×)
- BSS scoring R (resting), Time Bin 14 (65-70 TOTAL) [1]: 0 (7×) and 1 (4×) and 2
- BSS scoring R (resting), Time Bin 15 (70-75 TOTAL) [1]: 1 (3×) and 0 (6×) and 3 and 2 (2×)
- BSS scoring R (resting), Time Bin 16 (75-80 TOTAL) [1]: 0 (6×) and 2 (3×) and 1 (3×)
- BSS scoring R (resting), Time Bin 17 (80-85 TOTAL) [1]: 0 (7×) and 1 (2×) and 4 and 3 and 2
- BSS scoring R (resting), Time Bin 18 (85-90 TOTAL) [1]: 0 (6×) and 1 (5×) and 2
- BSS scoring A (active), Time Bin 19 (90-95 TOTAL), AVG (1 mg/kg, AVG of LT-1 to LT-12): 0.14
- BSS scoring A (active), Time Bin 20 (95-100 TOTAL), AVG (1 mg/kg, AVG of LT-1 to LT-12): 0.10
- BSS scoring A (active), Time Bin 21 (100-105 TOTAL), AVG (1 mg/kg, AVG of LT-1 to LT-12): 0.14
- BSS scoring A (active), Time Bin 22 (105-110 TOTAL), AVG (1 mg/kg, AVG of LT-1 to LT-12): 0.15
- BSS scoring A (active), Time Bin 23 (110-115 TOTAL), AVG (1 mg/kg, AVG of LT-1 to LT-12): 0.18
- BSS scoring A (active), Time Bin 24 (115-120 TOTAL), AVG (1 mg/kg, AVG of LT-1 to LT-12): 0.15
- BSS scoring E (eating/drinking), Time Bin 19 (90-95 TOTAL), AVG (1 mg/kg, AVG of LT-1 to LT-12): 0.58
- BSS scoring E (eating/drinking), Time Bin 20 (95-100 TOTAL), AVG (1 mg/kg, AVG of LT-1 to LT-12): 0.73
- BSS scoring E (eating/drinking), Time Bin 21 (100-105 TOTAL), AVG (1 mg/kg, AVG of LT-1 to LT-12): 0.61
- BSS scoring E (eating/drinking), Time Bin 22 (105-110 TOTAL), AVG (1 mg/kg, AVG of LT-1 to LT-12): 0.63
- BSS scoring E (eating/drinking), Time Bin 23 (110-115 TOTAL), AVG (1 mg/kg, AVG of LT-1 to LT-12): 0.59
- BSS scoring E (eating/drinking), Time Bin 24 (115-120 TOTAL), AVG (1 mg/kg, AVG of LT-1 to LT-12): 0.41
- BSS scoring G (grooming), Time Bin 19 (90-95 TOTAL), AVG (1 mg/kg, AVG of LT-1 to LT-12): 0.02
- BSS scoring G (grooming), Time Bin 20 (95-100 TOTAL), AVG (1 mg/kg, AVG of LT-1 to LT-12): 0.01
- BSS scoring G (grooming), Time Bin 21 (100-105 TOTAL), AVG (1 mg/kg, AVG of LT-1 to LT-12): 0.01
- BSS scoring G (grooming), Time Bin 22 (105-110 TOTAL), AVG (1 mg/kg, AVG of LT-1 to LT-12): 0.08
- BSS scoring G (grooming), Time Bin 23 (110-115 TOTAL), AVG (1 mg/kg, AVG of LT-1 to LT-12): 0.06
- BSS scoring G (grooming), Time Bin 24 (115-120 TOTAL), AVG (1 mg/kg, AVG of LT-1 to LT-12): 0.02
- BSS scoring R (resting), Time Bin 19 (90-95 TOTAL), AVG (1 mg/kg, AVG of LT-1 to LT-12): 0.26
- BSS scoring R (resting), Time Bin 20 (95-100 TOTAL), AVG (1 mg/kg, AVG of LT-1 to LT-12): 0.17
- BSS scoring R (resting), Time Bin 21 (100-105 TOTAL), AVG (1 mg/kg, AVG of LT-1 to LT-12): 0.24
- BSS scoring R (resting), Time Bin 22 (105-110 TOTAL), AVG (1 mg/kg, AVG of LT-1 to LT-12): 0.14
- BSS scoring R (resting), Time Bin 23 (110-115 TOTAL), AVG (1 mg/kg, AVG of LT-1 to LT-12): 0.18
- BSS scoring R (resting), Time Bin 24 (115-120 TOTAL), AVG (1 mg/kg, AVG of LT-1 to LT-12): 0.26
- BSS scoring A (active), Time Bin 19 (90-95 TOTAL) [2]: 0 (6×) and 4 and 1 (3×) and 7 and 3
- BSS scoring A (active), Time Bin 20 (95-100 TOTAL) [2]: 0 (8×) and 6 and 3 and 1 and 2
- BSS scoring A (active), Time Bin 21 (100-105 TOTAL) [2]: 0 (7×) and 5 (3×) and 1 (2×)
- BSS scoring A (active), Time Bin 22 (105-110 TOTAL) [2]: 1 (3×) and 3 (3×) and 0 (4×) and 4 and 2
- BSS scoring A (active), Time Bin 23 (110-115 TOTAL) [2]: 8 and 0 (5×) and 4 (2×) and 2 and 1 (3×)
- BSS scoring A (active), Time Bin 24 (115-120 TOTAL) [2]: 6 and 0 (6×) and 1 and 3 and 2 (2×) and 4
- BSS scoring E (eating/drinking), Time Bin 19 (90-95 TOTAL) [2]: 10 (3×) and 8 (3×) and 5 and 9 and 0 (3×) and 2
- BSS scoring E (eating/drinking), Time Bin 20 (95-100 TOTAL) [2]: 10 (5×) and 6 and 3 and 8 and 2 and 9 (2×) and 0
- BSS scoring E (eating/drinking), Time Bin 21 (100-105 TOTAL) [2]: 10 (5×) and 2 (2×) and 5 and 3 (2×) and 8 and 0
- BSS scoring E (eating/drinking), Time Bin 22 (105-110 TOTAL) [2]: 9 and 6 (4×) and 10 and 5 and 7 (2×) and 8 and 3 (2×)
- BSS scoring E (eating/drinking), Time Bin 23 (110-115 TOTAL) [2]: 0 and 7 (4×) and 10 (2×) and 3 and 5 (2×) and 6 and 4
- BSS scoring E (eating/drinking), Time Bin 24 (115-120 TOTAL) [2]: 0 (3×) and 2 (2×) and 10 and 5 (3×) and 3 and 9 and 8
- BSS scoring G (grooming), Time Bin 19 (90-95 TOTAL) [2]: 0 (10×) and 1 (2×)
- BSS scoring G (grooming), Time Bin 20 (95-100 TOTAL) [2]: 0 (11×) and 1
- BSS scoring G (grooming), Time Bin 21 (100-105 TOTAL) [2]: 0 (11×) and 1
- BSS scoring G (grooming), Time Bin 22 (105-110 TOTAL) [2]: 0 (7×) and 1 (2×) and 2 (2×) and 3
- BSS scoring G (grooming), Time Bin 23 (110-115 TOTAL) [2]: 1 (3×) and 0 (7×) and 2 (2×)
- BSS scoring G (grooming), Time Bin 24 (115-120 TOTAL) [2]: 0 (10×) and 1 (2×)
- BSS scoring R (resting), Time Bin 19 (90-95 TOTAL) [2]: 0 (5×) and 2 (3×) and 1 and 9 and 8 and 7
- BSS scoring R (resting), Time Bin 20 (95-100 TOTAL) [2]: 0 (6×) and 4 and 1 (2×) and 2 and 5 and 7
- BSS scoring R (resting), Time Bin 21 (100-105 TOTAL) [2]: 0 (5×) and 3 (3×) and 2 (2×) and 6 and 10
- BSS scoring R (resting), Time Bin 22 (105-110 TOTAL) [2]: 0 (5×) and 1 (2×) and 4 (2×) and 2 (2×) and 3
- BSS scoring R (resting), Time Bin 23 (110-115 TOTAL) [2]: 1 (3×) and 3 (4×) and 0 (3×) and 2 and 4
- BSS scoring R (resting), Time Bin 24 (115-120 TOTAL) [2]: 4 (2×) and 7 (2×) and 0 (4×) and 2 and 5 and 1 (2×)
- BSS scoring A (active), Time Bin 19 (90-95 TOTAL), AVG (3 mg/kg, AVG of LT-1 to LT-12): 0.18
- BSS scoring A (active), Time Bin 20 (95-100 TOTAL), AVG (3 mg/kg, AVG of LT-1 to LT-12): 0.19
- BSS scoring A (active), Time Bin 21 (100-105 TOTAL), AVG (3 mg/kg, AVG of LT-1 to LT-12): 0.22
- BSS scoring A (active), Time Bin 22 (105-110 TOTAL), AVG (3 mg/kg, AVG of LT-1 to LT-12): 0.20
- BSS scoring A (active), Time Bin 23 (110-115 TOTAL), AVG (3 mg/kg, AVG of LT-1 to LT-12): 0.19
- BSS scoring A (active), Time Bin 24 (115-120 TOTAL), AVG (3 mg/kg, AVG of LT-1 to LT-12): 0.27
